Test [1] has as its system M. tuberculosis H37Rv fructose-bisphosphate aldolase (FBA). As to conditions: ref PubChem Bioassay AID 588726; cited from earlier work.
Test [2] deals with M. tuberculosis. As to conditions: Table 1; nd = no detected effect; ref PubChem Bioassay AID 449762; cited from earlier work.
For another test, the system named is M. tuberculosis H37Rv. Description: M. tuberculosis growth inhibition. The format is cell-based, Mycobacterium tuberculosis. As to conditions: for MIC: Mycobacterium tuberculosis, H37RV, read-out: Mycobacterium Growth inhibition, MIC (μM) tuberculosis, Table 2, this study.
The subject of test [3] is non-replicating M. smegmatis. Description: Cell viability by CFU assay under carbon starvation. The format is cell-based, Mycobacterium smegmatis. As to conditions: Mycolicibacterium smegmatis, 96 h, read-out: colony forming unit (CFU) reduction.
In test [4] the test system is M. tuberculosis. As to conditions: Table 1; values deduced from ref PubChem Bioassay AID 1626; cited from earlier work.
For a further test, the system named is NAD pool. Description: NAD pool level in M. smegmatis, colorimetric detection kit. The format is cell-based, Mycobacterium smegmatis.

Values joined by “and” are separate entries in the source; they are usually repeats but may differ in a detail not shown here. Identical values can stand only once. Like-named read-outs stand apart in the source and are kept apart here.

As usually defined, the MIC is the smallest concentration in the dilution series that meets the test's criterion for growth inhibition.

`CCn1cc(C(=O)NCCC(C)C)c(=O)c2cc(F)c(N3CCN(C(=O)c4ccco4)CC3)cc21` [N1–7]: the “Enzyme inhibition (%) at 1 μM MtFBA” value in test [1] is 14.68%. In the test with M. tuberculosis [2], the “Mycobacterium Growth inhibition MIC (μM) tuberculosis e” value is >25 µM.
`CCC(C)NC(=O)c1cn(CC)c2cc(N3CCN(C(=O)c4ccco4)CC3)c(F)cc2c1=O` (stereo not drawn) [N1–2]: the “Enzyme inhibition (%) at 1 μM MtFBA” value in test [1] is 54.28%. In addition, the “Mycobacterium Growth inhibition MIC (μM) tuberculosis e” value in the test with M. tuberculosis [2] was 50 µM.
As for `Cc1ccc(OCc2n(CC(=O)OC3CC(C)CCC3C(C)C)c3ccccc3[n+]2C)cc1` (stereo not drawn) [N2–10], the MIC with M. tuberculosis H37Rv is 19.7 µM.
For the compound `CC1CCC(C(C)C)C(OC(=O)Cn2c(COc3ccccc3)[n+](C)c3ccccc32)C1` (stereo not drawn) [N2–8], the MIC in the test on M. tuberculosis H37Rv worked out at 21.2 µM. In test [3], the log reduction at 25 µM was > 2.
Regarding `CCn1cc(C(=O)NCc2ccncc2)c(=O)c2cc(F)c(N3CCN(C(=O)c4ccco4)CC3)cc21` [N1–16], the “Enzyme inhibition (%) at 1 μM MtFBA” value in test [1] is 41.76%. Further, the “Mycobacterium Growth inhibition MIC (μM) tuberculosis d” value in the test on M. tuberculosis [4] was >100 µM.
For `CCN(CC)CCNC(=O)c1cn(CC)c2cc(N3CCN(C(=O)c4ccco4)CC3)c(F)cc2c1=O` [N1–30], the “Enzyme inhibition (%) at 1 μM MtFBA” value in test [1] is 22.17%. The “Mycobacterium Growth inhibition MIC (μM) tuberculosis d” value in the test with M. tuberculosis [4] is >100 µM.
For the compound `CCCCNC(=O)c1cn(CC)c2cc(N3CCN(C(=O)c4ccco4)CC3)c(F)cc2c1=O` [N1–5], the “Enzyme inhibition (%) at 1 μM MtFBA” value in test [1] was 22.14%. Moreover, the “Mycobacterium Growth inhibition MIC (μM) tuberculosis e” value in the test on M. tuberculosis [2] is >25 µM.
Turning to `COc1ccc(OCc2n(CC(=O)OC3CC(C)CCC3C(C)C)c3ccccc3[n+]2C)cc1` (stereo not drawn) [N2–11], in the test with M. tuberculosis H37Rv, the MIC worked out at 28 µM. The “Mycobacterium Growth inhibition, MIC (μM) tuberculosis” value in the test on M. tuberculosis H37Rv (Table 2, this study) amounted to 28.2 µM. Further, the log reduction at 25 µM in test [3] is ≤ 4. In addition, the NAD pool depletion result with NAD pool (inhibitor at ~5× MIC added at log-phase, samples over 6 hours) is given as “rapid depletion of the NAD pool”.
Turning to `CCn1cc(C(=O)NCc2ccccc2)c(=O)c2cc(F)c(N3CCN(C(=O)c4ccco4)CC3)cc21` [N1–10], in test [1], the “Enzyme inhibition (%) at 1 μM MtFBA” value was 20% and 20.43%. Moreover, the “Mycobacterium Growth inhibition MIC (μM) tuberculosis d” value in the test with M. tuberculosis [4] was <10 µM. Further, the “Mycobacterium Growth inhibition MIC (μM) tuberculosis e” value in the test on M. tuberculosis [2] is 25 µM.
`CC1CCC(C(C)C)C(OC(=O)Cn2c[n+](CC(=O)OC3CC(C)CCC3C(C)C)c3ccccc32)C1` (stereo not drawn) [N2–1]: the MIC in the test on M. tuberculosis H37Rv was 46.7 µM.
Turning to `Cc1ccccc1OCc1n(CC(=O)OC2CC(C)CCC2C(C)C)c2ccccc2[n+]1C` (stereo not drawn) [N2–9], the MIC in the test with M. tuberculosis H37Rv amounted to 38.5 µM.
Turning to `CCn1cc(C(=O)NCC(C)C)c(=O)c2cc(F)c(N3CCN(C(=O)c4ccco4)CC3)cc21` [N1–6], in test [1], the “Enzyme inhibition (%) at 1 μM MtFBA” value is 11.37%.
Consider `CCn1cc(C(=O)NCc2cccc(F)c2)c(=O)c2cc(F)c(N3CCN(C(=O)c4ccco4)CC3)cc21` [N1–13], for which the “Enzyme inhibition (%) at 1 μM MtFBA” value in test [1] is 40% and 38.2%. For the same compound, in the test on M. tuberculosis [4], the “Mycobacterium Growth inhibition MIC (μM) tuberculosis d” value was 12.5 µM. Further, the “Mycobacterium Growth inhibition MIC (μM) tuberculosis e” value with M. tuberculosis [2] is 25 µM.
In the case of `CCn1cc(C(=O)NC(C)C)c(=O)c2cc(F)c(N3CCN(C(=O)c4ccco4)CC3)cc21` [N1–1], the “Enzyme inhibition (%) at 1 μM MtFBA” value in test [1] is 54.81%. Moreover, the “Mycobacterium Growth inhibition MIC (μM) tuberculosis e” value in the test with M. tuberculosis [2] was >25 µM.
For `CCN(CC)CCCNC(=O)c1cn(CC)c2cc(N3CCN(C(=O)c4ccco4)CC3)c(F)cc2c1=O` [N1–31], the “Enzyme inhibition (%) at 1 μM MtFBA” value in test [1] is 54.21%. Moreover, the “Mycobacterium Growth inhibition MIC (μM) tuberculosis e” value in the test on M. tuberculosis [2] is >25 µM.
For the compound `CCCNC(=O)c1cn(CC)c2cc(N3CCN(C(=O)c4ccco4)CC3)c(F)cc2c1=O` [N1–3], in test [1], the “Enzyme inhibition (%) at 1 μM MtFBA” value is 79.9%. The “Mycobacterium Growth inhibition MIC (μM) tuberculosis e” value in the test on M. tuberculosis [2] was 25 µM.
Turning to `COc1ccc(-c2n(CC(=O)OC3CC(C)CCC3C(C)C)c3ccccc3[n+]2C)cc1` (stereo not drawn) [N2–7], in the test on NAD pool, the NAD pool depletion entry is recorded as “rapid depletion of the NAD pool”.
`C=CCNC(=O)c1cn(CC)c2cc(N3CCN(C(=O)c4ccco4)CC3)c(F)cc2c1=O` [N1–4]: the “Enzyme inhibition (%) at 1 μM MtFBA” value in test [1] is given as 97.0%. The “Mycobacterium Growth inhibition MIC (μM) tuberculosis e” value with M. tuberculosis [2] is 25 µM.
As for `CCn1cc(C(=O)NCc2ccco2)c(=O)c2cc(F)c(N3CCN(C(=O)c4ccco4)CC3)cc21` [N1–29], the “Enzyme inhibition (%) at 1 μM MtFBA” value in test [1] was 19.8%. Besides, the “Mycobacterium Growth inhibition MIC (μM) tuberculosis d” value with M. tuberculosis [4] is >10 µM. Further, the “Mycobacterium Growth inhibition MIC (μM) tuberculosis e” value in the test with M. tuberculosis [2] is <25 µM.
As to `CCn1cc(C(=O)Nc2ncccc2O)c(=O)c2cc(F)c(N3CCN(C(=O)c4ccco4)CC3)cc21` [N1–20], in test [1], the “Enzyme inhibition (%) at 1 μM MtFBA” value is 14.6%.

Values taken from paper PMC8900257 (ACS chemical biology, 2019).
